Series [1] deals with E. multilocularis metacestodes. Put plainly: Secondary infection with E. multilocularis metacestodes, chemotherapy starting at the timepoint of infection (Example 1). The series is classed as in vivo, Echinococcus multilocularis. The note with it: Balb/c mice, i.p. 20 metacestodes; daily intragastric treatment from day of infection for 35 days; necropsy day 36; CMC group 0.23±0.05 g. The method, then: (§1) E. multilocularis metacestodes (isolate IM280) were maintained by serial transplantation passages through intraperitoneal (i.p.) injection in gerbils (Meriones unguiculatus). Animals were sacrificed at four to ten weeks p.i, and the parasite material was removed from the peritoneal cavity under aseptic conditions, placed into Hanks balanced salt solution (HBSS), and washed several times. Vesicle suspensions were prepared as described in Hemphill, A., and B. Gottstein. 1995. Immunology and morphology studies on the proliferation of in vitro cultivated Echinococcus multilocularis metacestodes. Parasitol. Res. 81: 605-614. Vesicles were washed once in HBSS, and the number of intact metacestodes in 50 ml HBSS was determined microscopically. The metacestode suspension was adjusted to 20 intact vesicles/100 ml HBSS, and was used for infection experiments immediately.
Six week old Balb/c mice were housed in a temperature-controlled light-cycle room with food and water ad libitum. The mice were separated into experimental groups of 10 animals each. Drug suspensions (30 mg/ml NTZ, 10 mg/ml ABZ, and 30 mg NTZ plus 10 mg ABZ/ml, respectively) were prepared in carboxymethylcellulose (CMC) 0.5% (w/v) in water. […]
(§2) For assessments of secondary infections, parasite tissue was carefully removed from the peritoneal cavity, and the parasite weight was determined as described in: Dai, W. J., and B. Gottstein. […]

In another series the test system is E. multilocularis eggs. Put plainly: Primary infection with E. multilocularis eggs, chemotherapy starting at two months post infection (Example 3). It is filed as in vivo, Echinococcus multilocularis. The following applies: Balb/c mice, 2000 eggs intragastric; NTZ from 2 months p.i., daily for 35 days; infection control 5 lesions/mouse. From the text: Infective E. multilocularis eggs were isolated from fox intestinal tissue as described (Pater, C., V. Muller, S. Harraga, M. Liance, V. Godot, J. P. Carbillet, D. Meillet, T. Romig, and D. A. Vuitton. 1998). Intestinal and systemic humoral immunological events in the susceptible Balb/C mouse strain after oral administration of Echinococcus multilocularis eggs. Parasite Immunol. 20: 623-9). The infectivity of this batch of eggs was pre-determined by titration-infection experiments in mice, and an infection dose of 2000 eggs was used.
Six week old Balb/c mice were housed in a temperature-controlled light-cycle room with food and water ad libitum. The mice were separated into experimental groups of 10 animals each. […]
For analysis of primary infection, the entire liver was removed, and lesion numbers were determined as described: Siles-Lucas, M., M. Merli, U. Mackenstedt and B. Gottstein 2003. […]
(§3) For serological and lymphocyte proliferation assays, blood was taken from euthanized mice by heart puncture, and total IgG-, as well as IgG1- and IgG2a-isotype levels against crude E. multilocularis extract (Faub-antigen) and vesicle fluid antigen, were determined according to: Dai, W. J., A. Hemphill, A. Waldvogel, K. Ingold, P. Deplazes, H. Mossmann, and B. Gottstein. […]

A short description of series [2]: Oral absorption of NTZ (general statement).
Series [3] can be described thus: Solubility of NTZ in solvents. It is filed as physicochemical.
In series [4] the test system is E. multilocularis metacestode tissue. Put plainly: Histology and transmission electron microscopy of metacestode tissue from treated mice (Example 5). The series is classed as in vivo, Echinococcus multilocularis. The note with it: for Ultrastructural alterations of metacestode tissue (TEM): tissue from treated infected mice vs CMC-control; for Histology of metacestode tissue: tissue from treated infected mice vs control. The method, then: For histological and transmission electron microscopy (TEM) analysis, tissue samples were fixed in 3% paraformaldehyde/1% glutaraldehyde in 100 mM sodium cacodylate buffer (pH 7.2) for 24 h at 4° C., and postfixed in 2% OsO4 in cacodylate buffer for 4 h at room temperature. The samples were then processed and embedded in Epon 812 epoxy resin as described previously in: Hemphill, A., and S. L. Croft. 1997. Electron microscopy in Parasitology. In: p. 227-268. M. Rogan (ed), Analytical Parasitology, Springer Verlag, Heidelberg. Sections of […] in thickness were used for histological examination, and ultrathin sections 80-100 nm for transmission electron microscopy. Sections were loaded onto 300-mesh copper grids, and were contrasted with uranyl acetate and lead citrate as described previously in: Hemphill, A., and S. L. Croft. 1997. Electron microscopy in Parasitology. In: p. 227-268. M. Rogan (ed), Analytical Parasitology, Springer Verlag, Heidelberg. Specimens were viewed on a Phillips 300 transmission electron microscope operating at 60 kV.
Because it was not possible to investigate alterations of the actual parasite tissue on the germinal layer using histology, transmission electron microscopy was performed on sections obtained from the same tissue blocks. For evaluating the ultrastructural changes occurring during drug treatments, it is important to note that the process of tissue damage was not uniform, as it progressed at different rates in different metacestode vesicles. However, within a single metacestode, damage was rather homogenous. Therefore, a large number of different metacestodes, and as a consequence, different areas of a tissue block, were investigated in order to show a complete picture of the tissue alterations induced by ABZ, NTZ, and NTZ/ABZ-treatments.

Series [5] relates to E. multilocularis metacestodes. Put plainly: Secondary infection with E. multilocularis metacestodes, chemotherapy starting at two months post infection (Example 2). The series is classed as in vivo, Echinococcus multilocularis. The following applies: Balb/c mice; treatment initiated 2 months p.i., daily for 35 days; vs CMC control (4.3±0.9 g). The method, then:
as §1, with “The metacestode suspension was adjusted to 20 intact vesicles/100 ml HBSS, and was used for infection experiments immediately.” left out
as §2, §3

For series [6] the following is noted: mice and humans, literature; cited from earlier work.
Series [7] is described as follows: Single-dose pharmacokinetic study, serum levels of TIZ, TIZ-gluc and ABZSO (Example 4). The note with it: non-infected Balb/c mice; single dose 1 mg ABZ or 3 mg/1 mg NTZ/ABZ. It is filed as in vivo. The method, then: A total of 120 6-week old non-infected Balb/c mice were divided into three treatment groups: group 1 (NTZ—30 mice), group 2 (ABZ—30 mice), group 3 (NTZ/ABZ—60 mice). They received a single dose of 3 mg NTZ (group 1), 1 mg ABZ (group 2) and 3 mg/1 mg of NTZ/ABZ (group 3) in a volume of 100 μl suspended in 0.5% CMC. At defined time points following inoculation, (0, 1, 2, 4, 6, 8, 12, 24 and 48 h), blood samples were obtained from three mice/group, and blood levels of tizoxanide (TIZ), tizoxanide-glucuronide (TIZ-gluc) and ABZSO were assayed.
TIZ and Tiz-gluc were extracted from mouse serum samples using protein precipitation with acetonitrile. The supernatant was evaporated and reconstituted in injection solvent before injection. Chromatographic separation was achieved on a C18 column (5 pm 70×2 mm). Detection was by a mass spectrometer with an ion spray ionization source. Negative ions were detected in multiple reaction monitoring mode (Q1=264 m/z and Q3=216.9 m/z for TIZ, and Q1=439.9 m/z and Q3=263.9 m/z for TIZ-gluc). The lower limits of quantitation were 0.05 μg/ml and 0.2 μg/ml for TIZ and TIZ-gluc, respectively. […]

SMILES strings stand for the structures.

As usually defined, the solubility is the dissolved amount per volume that the medium holds. In turn, `CC(=O)Oc1ccccc1C(=O)Nc1ncc([N+](=O)[O-])s1` [NTZ, 2-(acetolyloxy)-N-(5-nitro-2-thiazolyl)benzamide] gave a Parasite weight in series [1] of 0.17 ± 0.05 g. Besides, the “Number of liver lesions (means)” value with E. multilocularis eggs is on record as 2.2 lesions/mouse. Moreover, the Oral absorption result in series [2] is “easily absorbed orally”. The solubility in series [3] (DMSO, organic solvent or mixture) was ≥ 2000 µg/mL. Moreover, in series [3] (acetic acid), the “Solubility in acetic acid” value is listed as “poorly soluble”. For the same compound, in series [3] (acetone), the Solubility in acetone result is “fairly soluble”. Also, the Solubility in chloroform result in series [3] (chloroform) was “poorly soluble”. Besides, the Solubility in dioxane result in series [3] (dioxane) is on record as “fairly soluble”. Also, the Solubility in ethanol entry in series [3] (ethanol) is “poorly soluble”. Moreover, the Solubility in ether result in series [3] (ether) was “very poorly soluble”. In addition, the “Solubility in methyl benzene” value in series [3] (methyl benzene) is listed as “very poorly soluble”. Also, the Solubility in pyridine result in series [3] (pyridine) is “easily soluble”. In addition, the Solubility in water result in series [3] (water) is given as “very poorly soluble”. In series [4], the “Ultrastructural alterations of metacestode tissue (TEM)” value is on record as “rather heterogeneous morphological features” and the “Histology of metacestode tissue” value is given as “limited destructive effect”. For the same compound, in series [5], the “Reduction in parasite weight (in words)” value is reported as “not statistically significant”.
In the case of `CCCSc1ccc2nc(NC(=O)OC)[nH]c2c1` [ABZ], in series [1], the Parasite weight was found to be 0.08 ± 0.01 g. Moreover, the “Time after which ABZSO disappears following ABZ uptake” value in series [6] is on record as ≤ 10 h. Further, in series [4], the “Ultrastructural alterations of metacestode tissue (TEM)” value is on record as “parasite tissue was mostly reduced to only the tegument” and the “Histology of metacestode tissue” value was “limited destructive effect”. In series [5], the “Reduction in parasite weight (in words)” value is listed as “significant reduction in parasite weight”. In addition, in series [7], the “ABZSO serum concentration at 12 h” value is “zero”.
